This passage reports EC50 results from patent US12528790B2, “Amide derivative having antiviral activity” (Shionogi & Co., Ltd., priority 2020, dated 2026).

Where two headings read alike, the source gives them in different places.

For one experiment, the system named is RSV A2 strain. Description: In vitro CPE (CytoPathic Effect) inhibition effect evaluation test, RSV type A. It is filed as cell-based. In short, it runs like this:
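EC50 is the concentration giving 50% inhibition of virus-induced cytopathic effect, fitted by nonlinear regression from CellTiter-Glo 2.0 viability. Compounds in 3-fold series were co-incubated at 37 °C with HEp-2 cells and RSV: A2 strain for 4 days, B (Wash/18537) for 5 days; uninfected wells served as control.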
On the technique in general: Damage to the host cells serves as the signal in cytopathic effect assays.

The subject of experiment [1] is RSV B (Wash/18537 strain). In words: In vitro CPE (CytoPathic Effect) inhibition effect evaluation test, RSV type B. The settings on record: human respiratory syncytial virus. In kind it is cell-based. The protocol: The test sample is diluted in advance to an appropriate concentration with DMSO, and 3-fold series of serial dilutions were prepared on a 384-well plate (0.32 μL/well). HEp-2 cells (CCL-23; ATCC) adjusted at appropriate number (2.4×10^5 cells/mL) in 2% FBS E-MEM (prepared by adding kanamycin and FBS to Eagle's Minimum Essential Medium; Invitrogen) were added at 12.5 μL/well to the 384-well plate previously aliquoted with the test samples. The RSV A2 strain was diluted to an appropriate concentration in a culture medium and added to the 384-well plate containing the test sample at 12.5 μL/well. The culture medium was added additionally to the 384-well plate, and the test was started with 50 μL/well. Control wells were prepared with only virus-free culture medium. The plate was incubated in a 5% CO2 incubator at 37° C. for 4 days, and the plate was then placed at room temperature for 30 minutes. CellTiter-Glo (registered trademark) 2.0 assay (Promega) was added at 15 μL/well, mixed for 30 seconds, and the plate was placed for approximately 1 hour. The luminescent signal was then measured by EnVision (PerkinElmer). The inhibitory effect of the test agents on RSV-induced CPE was calculated as 0% and 100% inhibition rate for each sample concentration based on the level of remaining viable cells by CellTiter-Glo (registered trademark) 2.0, with the EC50 value for each compound calculated by nonlinear regression as the concentration that inhibits RSV-induced CPE by 50%. In the case of evaluation against RSV type B, RSV B (Wash/18537 strain) was infected in the same manner as the type A, cultured for 5 days, and quantitated in the same manner as for the A2 strain.

Setting [2] is: human respiratory syncytial virus, inhibitory effect against RSV type A (RSV A2 strain), HEp-2 cells, CPE inhibition, read-out: EC50.
The mark [3] stands for this setting: inhibitory effect against RSV type B, CPE inhibition, read-out: EC50.
Where [4] appears, read: human respiratory syncytial virus, HEp-2, 96 h, read-out: EC50, inhibitory effect against RSV type A (CPE inhibition).
Setting [5] is: inhibitory effect against RSV type A (RSV A2 strain), HEp-2 cells, CPE inhibition, read-out: EC50.

With `CC(F)(F)c1nc(-c2cn(C3CCC(F)CC3)c3cc(O[C@H]4CC[C@H](N5CC(F)(F)C5)CC4)ccc23)ncc1C(=O)NC1(C(=O)O)C2CC3CC(C2)CC1C3` (single isomer, unassigned) [Compound I-568], the EC50 (in the experiment with RSV A2 strain (setting [2]); in experiment [1] (setting [3])) was below 10 nM each time.
Consider `O=C(NC1(C(=O)O)C2CC3CC(C2)CC1C3)c1cnc(-c2cn(C3CCOCC3)c3cc(O[C@H]4CC[C@H](N5CC(F)(F)C5)CC4)ccc23)nc1C(F)(F)F` (some centres unmarked) [Compound I-499], for which the concentration for a half-maximal effect (EC50) (in the experiment on RSV A2 strain (setting [2]); in experiment [1] (setting [3])) was below 10 nM throughout.
Consider `O=C(NC1(C(=O)O)C2CC3CC(C2)CC1C3)c1ccc(-c2cn(C3CCC4(CC3)COC4)c3cc(O[C@H]4CC[C@H](N5CC(F)(F)C5)CC4)ccc23)nc1C(F)(F)F` (some centres unmarked) [Compound I-582], for which the EC50 (in the experiment on RSV A2 strain (setting [2]); in experiment [1] (setting [3])) was below 10 nM throughout.
With `O=C(NC1(C(=O)O)C2CC3CC(C2)CC1C3)c1cnc(N2CC(C3CCCC3)c3cc(OC4CCN(CC(F)(F)F)CC4)ccc32)nc1C(F)(F)F` (racemic) [Compound I-487], the EC50 is below 10 nM with RSV A2 strain (setting [2]) and 10 to 100 nM in experiment [1] (setting [3]).
For `O=C(N[C@@]1(C(=O)O)C2CC3C[C@@H]1C[C@](F)(C3)C2)c1cnc(N2CCc3cc(OCCC4CCOCC4)ccc32)nc1C(F)(F)F` [Compound I-155], in that order: below 10 nM and 10 to 100 nM.
Turning to `O=C(NC1(C(=O)O)C2CC3CC(C2)CC1C3)c1cnc(N2CC3(CCOCC3)c3cc(OCCC(F)(F)F)ncc32)nc1C(F)(F)F` (centres unmarked) [Compound I-489], the concentration giving a half-maximal response (EC50) (in the experiment with RSV A2 strain (setting [2]); in experiment [1] (setting [3])) was below 10 nM each time.
Regarding `O=C(NC1(C(=O)O)CCCCC1)c1ccc(N2CCc3cc(OCCC4CCOCC4)ccc32)nc1C(F)(F)F` [Compound I-33], the 50% effective concentration (EC50) in the experiment with RSV A2 strain (setting [4]) came out at 7.5 nM; in experiment [1] (HEp-2, 120 h, HEp-2 cells, RSV B (Wash/18537 strain), 5 days, CellTiter-Glo, read-out: EC50, inhibitory effect against RSV type B (CPE inhibition)) it was 110 nM.
For the molecule `COc1cnc(N2CCC(Oc3ccc4c(c3)C3(CCCCC3)CN4c3ncc(C(=O)NC4(C(=O)O)C5CC6CC(C5)CC4C6)c(C(F)(F)F)n3)CC2)nc1` (centres unmarked) [Compound I-522], the EC50 (in the experiment with RSV A2 strain (setting [2]); in experiment [1] (setting [3])) was below 10 nM in each case.
As for `CC(F)(F)c1nc(N2CC3(CCCCC3)c3cc(OC4CCN(c5ncc(F)cn5)CC4)ncc32)ncc1C(=O)N[C@]1(C(=O)O)[C@@H]2CC3C[C@H]1C[C@@](F)(C3)C2` [Compound I-600], the concentration giving a half-maximal response (EC50) (in the experiment with RSV A2 strain (setting [2]); in experiment [1] (setting [3])) was below 10 nM throughout.
Turning to `O=C(NC1(C(=O)O)C2CC3CC(C2)CC1C3)c1ccc(-c2cn(C3=CCC(F)(F)CC3)c3cc(OC4CCN(c5ncc(F)cn5)CC4)ccc23)nc1C(F)(F)F` (centres unmarked) [Compound I-359], in the experiment with RSV A2 strain (setting [5]), the EC50 is below 10 nM.
Regarding `O=C(NC1(C(=O)O)C2CC3CC(C2)CC1C3)c1cnc(-c2cn(C3CCC(F)(F)C3)c3cc(OC4CCN(c5ncc(F)cn5)CC4)ccc23)nc1C(F)(F)F` (racemic) [Compound I-470], in the experiment on RSV A2 strain (setting [2]), the EC50 was below 10 nM.
As to `O=C(NC1(C(=O)O)C2CC3CC(C2)CC1C3)c1cnc(N2CC3(CCCC3)c3cc(OC4CCN(c5ncccn5)CC4)ccc32)nc1C(F)(F)F` (centres unmarked) [Compound I-244], the EC50 in the experiment on RSV A2 strain (setting [2]) is below 10 nM.
In the experiment with RSV A2 strain (human respiratory syncytial virus, HEp-2), `COc1cc(COc2ccc3c(c2)CCN3c2ncc(C(=O)NC3(C(=O)O)CCCCC3)c(C(F)(F)F)n2)ccn1` [Compound I-27] returned a 50% effective concentration (EC50) of 10 to 100 nM.
Consider `O=C(NC1(C(=O)O)CCCCC1)c1cnc(N2CC3(CCOCC3)c3nc(OCCC4CCOCC4)ccc32)nc1C(F)(F)F` [Compound I-106], for which the half-maximal effective concentration (EC50) with RSV A2 strain (setting [2]) is below 10 nM.
Still for that read-out and setting: then `O=C(NC1(C(=O)O)C2CC3CC(C2)CC1C3)c1ccc(-c2cn(C3CCCC3)c3cc(OC4CCN(c5ncccn5)CC4)ccc23)nc1C(F)(F)F` (centres unmarked) [Compound I-289], with below 10 nM.
Consider `CC1CN(c2ncccn2)CCC1Oc1ccc2c(-c3ncc(C(=O)NC4(C(=O)O)C5CC6CC(C5)CC4C6)c(C(F)(F)F)n3)cn(C3CCC(F)(F)CC3)c2c1` (single isomer, unassigned) [Compound I-392], for which, in the experiment on RSV A2 strain (setting [5]), the EC50 was below 10 nM.
`CC(=O)N1CCC(Oc2ccc3c(-c4ncc(C(=O)NC5(C(=O)O)C6CC7CC(C6)CC5C7)c(C(F)(F)F)n4)cn(C4CCC(F)(F)CC4)c3c2)CC1` (centres unmarked) [Compound I-247]: in the experiment on RSV A2 strain (setting [2]), the EC50 is below 10 nM.
Consider `N#Cc1cccc(-n2cc(-c3ccc(C(=O)NC4(C(=O)O)C5CC6CC(C5)CC4C6)c(C(F)(F)F)n3)c3ccc(OC4CCN(c5ncccn5)CC4)cc32)n1` (centres unmarked) [Compound I-339], for which the EC50 in the experiment on RSV A2 strain (setting [5]) was below 10 nM.
`O=C(NC1(C(=O)O)C2CC3CC(C2)CC1C3)c1cnc(-c2cn(C3CCC(F)(F)CC3)c3cc(O[C@@H]4CCN(CC(F)(F)F)C4)ccc23)nc1C(F)(F)F` (some centres unmarked) [Compound I-374]: the concentration giving a half-maximal response (EC50) in the experiment on RSV A2 strain (setting [2]) was below 10 nM.
For `COc1ccc2c(n1)C1(CCOCC1)CN2c1ncc(C(=O)NC2(C(=O)O)CCCCC2)c(C(F)(F)F)n1` [Compound I-90], in the experiment on RSV A2 strain (setting [2]), the EC50 lay within 100 to 5000 nM.
In the case of `CN(CC(F)(F)F)[C@H]1CC[C@@H](Oc2ccc3c(-c4ncc(C(=O)NC5(C(=O)O)C6CC7CC(C6)CC5C7)c(C(F)(F)F)n4)cn(C4CCC(F)(F)CC4)c3c2)CC1` (some centres unmarked) [Compound I-448], the EC50 in the experiment on RSV A2 strain (setting [2]) is below 10 nM.
Still for that read-out and setting: then `N#C[C@]12C[C@@H]3C[C@H](C1)[C@@](NC(=O)c1cnc(N4CC5(CCOCC5)c5cc(OC6CCN(c7ncccn7)CC6)ccc54)nc1C(F)(F)F)(C(=O)O)[C@@H](C3)C2` [Compound I-219], with below 10 nM.
Same read-out and setting: then `O=C(NC1(C(=O)O)C2CC3CC(C2)CC1C3)c1cnc(-c2cn(C3CCC(F)(F)CC3)c3cc(OC4CCN(CC(F)(F)C(F)F)CC4)ccc23)nc1C(F)(F)F` (centres unmarked) [Compound I-409], with below 10 nM; and `CC(C)(C)OC(=O)N1CCC(NC(=O)c2cnc(N3CC4(CCOCC4)c4cc(OC5CCN(c6ncccn6)CC5)ccc43)nc2C(F)(F)F)(C(=O)O)CC1` [Compound I-140], with 10 to 100 nM; and `O=C(NC1(C(=O)O)CCOCC1)c1cnc(N2CCc3cc(OC4CCN(c5ncccn5)CC4)ccc32)nc1C(F)(F)F` [Compound I-47], with 10 to 100 nM.
Same read-out and setting: then `CC(F)(F)c1nc(N2CC3(CCCCC3)c3cc(OC4CCN(CC(F)(F)F)CC4)ccc32)nc(C(C)(F)F)c1C(=O)NC1(C(=O)O)C2CC3CC(C2)CC1C3` (centres unmarked) [Compound I-441], with 10 to 100 nM.
In the case of `O=C(NC1(C(=O)O)C2CC3CC(C2)CC1C3)c1cnc(N2CC3(CCOCC3)c3cc(C=C4CCN(C(=O)OCc5ccccc5)CC4)ccc32)nc1C(F)(F)F` (centres unmarked) [Compound I-111], the EC50 in the experiment on RSV A2 strain (setting [5]) is below 10 nM.
Regarding `CC1CN(c2ncc(F)cn2)CCC1Oc1ccc2c(-c3ncc(C(=O)NC4(C(=O)O)C5CC6CC(C5)CC4C6)c(C(F)(F)F)n3)cn(C3CCC(F)(F)CC3)c2c1` (centres unmarked) [Compound I-376], in the experiment with RSV A2 strain (setting [2]), the EC50 is below 10 nM.
Same read-out and setting: then `Cc1c(OC2CCN(c3ncccn3)CC2)ccc2c(-c3ncc(C(=O)NC4(C(=O)O)C5CC6CC(C5)CC4C6)c(C(F)(F)F)n3)cn(C3CCC(F)(F)CC3)c12` (centres unmarked) [Compound I-282], with below 10 nM.
Still for that read-out and setting: then `CC(=O)OCCCCOc1ccc2c(c1)CCN2c1ncc(C(=O)NC2(C(=O)O)CCCCC2)c(C(F)(F)F)n1` [Compound I-6], with 10 to 100 nM; and `Cc1ccc2c(c1)C1(CCNCC1)CN2c1ncc(C(=O)NC2(C(N)=O)C3CC4CC(C3)CC2C4)c(C(F)(F)F)n1` (centres unmarked) [Compound I-172], with 100 to 5000 nM.
The same measure, in the same setting: then `O=C(NC1(C(=O)O)CCCCC1)c1cnc(N2CCc3cc(OC4CCN(c5ccccn5)CC4)ccc32)nc1C(F)(F)F` [Compound I-41], with below 10 nM; and `O=C(NC1(C(=O)O)C2CC3CC(C2)CC1C3)c1cnc(N2CC3(CCOCC3)c3c2cc(F)c(F)c3F)nc1C(F)(F)F` (centres unmarked) [Compound I-287], with below 10 nM.
As to `O=C(NC1(C(=O)O)C2CC3CC(C2)CC1C3)c1cnc(N2CC3(CCOCC3)c3cc(Oc4ccccc4)ccc32)nc1C(F)(F)F` (centres unmarked) [Compound I-348], the EC50 in the experiment with RSV A2 strain (setting [5]) is below 10 nM.
The same measure, in the same setting: then `COc1cccc(COc2ccc3c(c2)CCN3c2ncc(C(=O)NC3(C(=O)O)CC4CCC3C4)c(C(F)(F)F)n2)c1` (single isomer, unassigned) [Compound I-17], with below 10 nM.
For the molecule `Cn1c(C2CCOCC2)c(-c2ccc(C(=O)NC3(C(=O)O)C4CC5CC(C4)CC3C5)c(C(F)(F)F)n2)c2ccc(OC3CCN(c4ncccn4)CC3)cc21` (centres unmarked) [Compound I-270], the EC50 with RSV A2 strain (setting [4]) worked out at 37 nM.
On to `Cn1nc(-c2ccc(C(=O)NC3(C(=O)O)C4CC5CC(C4)CC3C5)c(C(F)(F)F)n2)c2ccc(OCCC3CCOCC3)cc21` (centres unmarked) [Compound I-127], for which the EC50 in the experiment on RSV A2 strain (setting [2]) is below 10 nM.
On the same count and under the same terms, then `COc1cccc(COc2ccc3c(ccn3-c3ncc(C(=O)NC4(C(=O)O)CC5CCC4C5)c(C(F)(F)F)n3)c2)c1` (single isomer, unassigned) [Compound I-18], with below 10 nM.

For orientation: EC50 means the concentration needed to bring the measured effect to its halfway point.
